From ChEMBL document CHEMBL3585324, “Suncheonosides A-D, Benzothioate Glycosides from a Marine-Derived Streptomyces sp” (J Nat Prod, 2015)
Active and inactive are the calls of the source. The calls are words filed in the database; no cut-off is given here.

Legend:
[1] = (§1) Antidiabetic activity against IDX medium-treated human bone marrow mesenchymal stem cells assessed as induction of adipogenesis at 10 uM after 6 days by oil red o/hematoxylin staining-based inverted-phase microscopic analysis relative to IDX medium-treated control; format: functional, Mesenchymal stem cell
[2] = Cytotoxicity against human bone marrow mesenchymal stem cells assessed as cell viability up to 100 uM after 48 hrs by WST-1 assay; format: cell-based
Mesenchymal stem cell [3] = assay: Antidiabetic activity against IDX medium-treated human bone marrow mesenchymal stem cells assessed as induction of adiponectin production during adipogenesis after 6 days by ELISA; format: functional
[4] = Antidiabetic activity against IDX medium-treated human bone marrow mesenchymal stem cells assessed as induction of adiponectin production during adipogenesis after 6 days by ELISA relative to glibenclamide; format: functional, Mesenchymal stem cell
Mesenchymal stem cell [5] = assay: as §1; format: functional
Mesenchymal stem cell [6] = assay: Antidiabetic activity against IDX medium-treated human bone marrow mesenchymal stem cells assessed as induction of adiponectin production during adipogenesis at 60 to 100 uM after 6 days by ELISA relative to IDX medium-treated control; format: functional

SMILES	Activity [1]	Activity [2]	Activity (Mesenchymal stem cell [3])	%max [4]	Activity (Mesenchymal stem cell [5])	Activity (Mesenchymal stem cell [6])
CSC(=O)c1c(O[C@@H]2O[C@@H](C)[C@H](O)[C@@H](O)[C@H]2O)c(C)c(O[C@@H]2O[C@@H](C)[C@H](O)[C@@H](O)[C@H]2O)c(C)c1C(C)C	75%	Non-toxic	Dose-dependent effect	38%	–	–
COc1ccc(Cl)cc1C(=O)NCCc1ccc(S(=O)(=O)NC(=O)NC2CCCCC2)cc1	–	–	Dose-dependent effect	–	–	–
COc1c(C)c(O[C@@H]2O[C@@H](C)[C@H](O)[C@@H](O)[C@H]2O)c(C(=O)SC)c(C(C)C)c1C	65%	Non-toxic	Dose-dependent effect	47%	–	–
CSC(=O)c1c(O[C@@H]2O[C@@H](C)[C@H](O)[C@@H](O)[C@H]2O)c(C)c(O)c(C)c1C(C)C	107%	Non-toxic	Dose-dependent effect	44%	–	–
COc1c(C)c(O[C@@H]2O[C@@H](C)[C@H](O)[C@@H](O)[C@H]2O)c(C)c(C(C)C)c1C(=O)SC	–	–	–	–	Active	–
CSC(=O)c1c(O)c(C)c(O)c(C)c1C(C)C	–	Non-toxic	–	–	–	inactive
